According to patent US8962830B2, “Protein kinase inhibitors and methods of treatment” (The Walter and Eliza Hall Institute of Medical Research, priority 2010, dated 2015):
pIC50: −log10 of the molar value. Like-named read-outs stand apart in the source and are kept apart here.

Legend:
[1] = test system: LIM 1899 colon carcinoma derived epithelial cells; test: Cellular activity, MTT cell growth assay, LIM1899; type: cell-based; details: 96 h, 4 days incubation
Experimental: (§1) A. Cells, Inhibitors and Incubation
(§2) 1. Cell Lines • LIM 1899 colon carcinoma derived epithelial cells were grown in RPMI+Adds^1+10% FCS. ^1 Additives for culture of LIM cell lines: 10 μM thioglycerol, 0.025 U/mL insulin, 1 μg/mL hydrocortisone
(§3) 2. Cell Plating in 96 Well Plate. • Assay medium: RPMI+Adds+5% FCS • Cells are trypsinized, washed once in assay medium and brought to the required concentration as described below: • Need 10^4 cells per well in 100 μL per well=10^5 per mL for plating • After washing, cells were resuspended in 5 mL and counted (1×T75 flask gives approx 2−3×10 eg^6 per mL). • Cells were then diluted to 10^5 cells/mL (need 10 mL minimum per plate). • Eg. Cell count in 5 mL is 25×10^5/mL • For 10^5/mL, dilute 1 mL to 25 mL • 100 μL per well cells were plated with multistepper pipette, over the whole plate. Plates were incubated overnight at 37° C.+5% CO2 incubator.
(§4) 3. Inhibitor Stocks • Inhibitors were dissolved in DMSO for 10 mM stocks. MW and amount of compound given was used to calculate the volume required for each. • 4× the highest concentration of the compound in the assay was calculated to prepare the working stocks. • eg 1st well final concentration in assay was 10 μM. • Therefore working stock was 40 μM • Stock solution is 10 mM→40 μM=4 μl in 1.0 mL assay medium for working stock.
(§5) 4. Plate Plan: • Rows A,B: Inhibitor 1 • Rows C,D: Inhibitor 2 • Rows E,F: Inhibitor 3 • Row G: RPMI+Adds+5% FCS (=maximum growth) • Row H: RPMI+Adds serum free (=minimum growth)
(§6) 5. Titration of Inhibitors • A 96 well plate was used to titrate the inhibitors for each assay plate: • 150 μL assay medium was added to each well of a 96 well plate. • 150 μL of Inhibitor 1 working stock was added wells A1 and B1. • Repeated with Inhibitor 2 to C1 and D1 • Repeated with Inhibitor 3 to E1 and F1 • Serial ½ dilutions were performed across the plate, rows A to F, left to right with 150 μL.
(§7) 6. Transfer Titrated Inhibitors to Cell Assay Plate: Final Volume 200 μl • Using a multichannel pipette, 100 μL was transferred from the corresponding wells of the titration plate to the cell assay plate, rows A to G. • Row H: medium was carefully removed from the cell wells with a 200 μL tip, and replaced with 200 μL serum free medium.
(§8) 7. Incubation • Plates were incubated for 4 days at 37° C. with 5% CO2.
(§9) B. Use of MTT to Measure Cell Growth
(§10) 1. MTT Preparation and Storage • MTT Sigma M-2128 5 g • Dissolved in PBS, at 5 mg/mL • 5 g bottle dissolved in 1 liter PBS (some impurities remain) • Filter sterilized and aliquoted in 50 mL tubes, stored at −20° C. • As needed, 50 mL tube was thawed and aliquoted in 5 mL tubes, re-stored at −20° C. • Stable at 4° C. for 1 month (unstable if left at 37° C. too long while thawing)
(§11) 2. MTT Solvent • a. 1M HCl: • Mixed 44.6 mL conc HCl (11.2M) in 500 mL DDW • b. Acidified isopropanol (Isopropanol with 0.04 N HCl): • Mixed 20 mL 1M HCl with 480 mL isopropanol (Propan-2-ol, iso-Propyl Alcohol)
(§12) 3. MTT Assay • After cell incubation (above): • Added 10 μL MTT to each well. • Incubated 4 hrs in 37° C. incubator. • Spun plates, 5 min, 1500 rpm. • Carefully flicked out medium into the sink, without disturbing the crystals. • Added 200 μL acidified isopropanol per well. • Placed on plate shaker, RT, speed 6.5, for 10 min-30 min. • Read OD of plates on Thermo Multiskan Ex, at 560/690 nm.
(§13) • Mosmann, T. • Rapid colorimetric assay for cellular growth and survival: application to proliferation and cytotoxic assays. Journal of Immunological Methods (1983), 65:55-63. Table with Examples of Cellular Data
(§14) The compounds in this invention display cellular activities against a range of tumour or transformed cell lines in particular colon cancer cell lines such as LIM1215, LIM2537 and LIM1899.

[2] = target: T1, Src recombinant enzyme, N-terminally His6 tagged full-length human protein (Homo sapiens, UniProt P12931); test: SRC kinase inhibition assay (AlphaScreen); type: biochemical; details: 80 μM ATP, 90 minutes at 30 degree Celsius
T1 construct: Src recombinant enzyme was purchased as N-terminally His6 tagged full-length human protein; His6 (N); purchased
T1 sequence (P12931 whole entry): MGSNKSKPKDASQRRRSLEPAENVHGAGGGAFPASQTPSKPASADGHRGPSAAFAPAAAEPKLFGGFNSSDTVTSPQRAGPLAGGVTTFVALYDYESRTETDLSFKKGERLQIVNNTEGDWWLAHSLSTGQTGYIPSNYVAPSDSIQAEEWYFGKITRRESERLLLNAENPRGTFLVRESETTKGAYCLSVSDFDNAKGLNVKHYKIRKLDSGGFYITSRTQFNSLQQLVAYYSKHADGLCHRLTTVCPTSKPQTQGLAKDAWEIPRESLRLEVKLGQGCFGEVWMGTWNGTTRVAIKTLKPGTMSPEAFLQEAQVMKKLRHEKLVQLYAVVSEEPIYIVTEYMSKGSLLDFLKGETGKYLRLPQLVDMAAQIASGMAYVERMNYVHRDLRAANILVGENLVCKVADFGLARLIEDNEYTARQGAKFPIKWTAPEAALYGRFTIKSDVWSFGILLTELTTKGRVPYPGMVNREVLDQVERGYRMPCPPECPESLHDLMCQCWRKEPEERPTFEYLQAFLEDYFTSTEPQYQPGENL
Experimental: Protocol for SRC Kinase Inhibition Assay. Compounds of the invention were tested for in vitro activity in the following assay: A biotin labeled peptide was used as substrate (amino acid sequence: Biotin-[…]). Src recombinant enzyme was purchased as N-terminally His6 tagged full-length human protein. The 15 μL assay reactions were run in Greiner brand white 384-well low volume plates. […] Compounds were added in a volume of 100 nL from dilution series made up in DMSO, positive and negative control reactions receiving the same volume DMSO without compounds. The plates were sealed with adhesive seals and incubated for 90 minutes at 30 degree Celsius. The reactions were stopped with the detection reagents added at the same time. Product formation was quantified as photochemiluminescence between PerkinElmer AlphaScreenTM beads, using Streptavidin-coated donor and anti-phosphotyrosine (P-[…]) acceptor beads. […] Plates were incubated for 5 hours before being read on a PerkinElmer EnVisionTM plate reader in HTS AlphascreenTM mode. IC50 values were obtained by calculating percent inhibition (% I) for each reaction relative to controls on the same plate (% [SMILES] where CN/CP are the averages of the negative/positive reactions, respectively), then fitting the % I data vs. compound concentration [I] to % I=([…])))) where A is the lower asymptote, B is the upper asymptote, C is the IC50 value, and D is the slope factor.

LIM2537 = test: Cellular activity, MTT cell growth assay, LIM2537; type: cell-based; details: 96 h, 4 days incubation
Experimental: as §1, §2, §3, §4, §5, §6, §7, §8, §9, §10, §11, §12, §13, §14

LIM1215 = test: Cellular activity, MTT cell growth assay, LIM1215; type: cell-based; details: LIM1215, 96 h, read-out: LIM1215 (cellular data)
Experimental: as §1, §2, §3, §4, §5, §6, §7, §8, §9, §10, §11, §12, §13, §14

RasNIH3T3 = test: Cellular activity, MTT cell growth assay, RasNIH3T3; type: cell-based; details: 96 h, read-out: RasNIH3T3 (cellular data)
[3] = test system: SFKs (Src family kinases); details: reported; no discrimination between family members; cited from earlier work
Solubility = type: physicochemical

SMILES | pIC50 [1] | pIC50 [2] | pIC50 (LIM1215; MTT, 4 days incubation) | pIC50 (RasNIH3T3; MTT, 4 days incubation) | other results
Cc1ccc(-c2nn(C(C)(C)CNC(=O)c3cccnc3)c3ncnc(N)c23)cc1 [Example 60] |  | 6.00 to 7.00 | 5.72 | 4.77 | 
Cc1nc(Nc2ncc(C(=O)Nc3c(C)cccc3Cl)s2)cc(N2CCN(CCO)CC2)n1 [Dasatinib, reference compound] | 5.92 |  | 5.70 | 4.92 to 5.05 | 
Cc1ccc(-c2nn(C(C)(C)CNC(=O)c3cnccn3)c3ncnc(N)c23)cc1 [Example 56] |  | 7.00 to 9.00 | 6.40 | 5.79 | 
COc1ccnc(C(=O)NCC(C)(C)n2nc(-c3ccc(C)cc3)c3c(N)ncnc32)c1 [Example 61] | 5.80 | 7.00 to 9.00 | 6.10 | 5.74 | 
Cc1ccc(-c2nn(C(C)(C)CNC(=O)c3ccccc3)c3ncnc(N)c23)cc1 [Example 11] | 5.77 | 6.00 to 7.00 |  |  | 
Cc1ccc(-c2nn(C(C)(C)CNC(=O)c3cncnc3)c3ncnc(N)c23)cc1 [Example 57] |  | 5.00 to 6.00 | 5.80 | < 4.70 | 
Cc1ccc(-c2nn(C(C)(C)CNC(=O)c3cc(Br)ccn3)c3ncnc(N)c23)cc1 [Example 42] |  | 7.00 to 9.00 | 6.05 | 5.72 | 
Cc1ccc(-c2nn(C(C)(C)C)c3ncnc(N)c23)cc1 [PP1, reference compound] |  |  |  |  | inhibition of SFKs [3]: potent inhibitors; pIC50 (LIM1215): 6.60; solubility (Solubility): poorly soluble; pIC50 (RasNIH3T3): 5.03
Cc1ccc(-c2nn(C(C)(C)CNS(=O)(=O)c3ccccc3)c3ncnc(N)c23)cc1 [Example 59] |  | 6.00 to 7.00 | 5.51 | < 4.70 | 
CC(C)(CNC(=O)c1ccccc1)n1nc(-c2ccc(Cl)cc2)c2c(N)ncnc21 [74 (compound 74F)] | < 4.70 |  |  |  | pIC50 (LIM2537): < 5.00
CC(C)(C)n1nc(-c2ccc(Cl)cc2)c2c(N)ncnc21 [PP2] |  |  |  |  | inhibition of SFKs [3]: potent inhibitors; solubility (Solubility): poorly soluble
Cc1ccc(-c2nn(C(C)(C)CNC(=O)c3ccccn3)c3ncnc(N)c23)cc1 [Example 12] | 6.77 | 7.00 to 9.00 | 6.77 | 6.96 | pIC50 (LIM2537): 6.77

More lines, main results first:

pIC50 [1] | pIC50 [2] | SMILES | pIC50 (LIM1215; MTT, 4 days incubation) | pIC50 (RasNIH3T3; MTT, 4 days incubation) | other results
6.05 | 7.00 to 9.00 | CC(C)(CNC(=O)c1ccccn1)n1nc(-c2ccc(Cl)cc2)c2c(N)ncnc21 [Example 75] |  |  | pIC50 (LIM2537): 5.80
5.96 | 5.00 to 6.00 | Cc1ccc(-c2nn(C(C)(C)CNC(=O)c3cccc(C)n3)c3ncnc(N)c23)cc1 [Example 73] |  |  | 
 | 7.00 to 9.00 | Cc1ccc(-c2nn(C(C)(C)CNC(=O)c3ccncn3)c3ncnc(N)c23)cc1 [Example 62] | 6.60 | 6.46 | 
6.06 | 7.00 to 9.00 | Cc1ccc(-c2nn(C(C)(C)CNC(=O)c3cscn3)c3ncnc(N)c23)cc1 [Example 64] |  | 6.20 | pIC50 (LIM2537): 5.96
 | 7.00 to 9.00 | Cc1ccc(-c2nn(C(C)(C)CNC(=N)c3ccccn3)c3ncnc(N)c23)cc1 [Example 77] |  |  | pIC50 (LIM2537): < 5.00
6.51 | 7.00 to 9.00 | Cc1ccc(-c2nn(C(C)(C)CNC(=O)c3cc(-c4ccccc4)ccn3)c3ncnc(N)c23)cc1 [Example 66] | 6.28 | 6.30 | 
5.77 | 6.00 to 7.00 | Cc1ccc(-c2nn(C(C)(C)CNC(=O)c3cc(Cl)ccn3)c3ncnc(N)c23)cc1 [Example 63] | 5.59 | 5.20 | 
4.72 | 5.00 to 6.00 | Cc1ccc(-c2nn(C(C)(C)CNC(=N)c3ccccc3)c3ncnc(N)c23)cc1 [Example 76] |  |  | pIC50 (LIM2537): < 5.00
5.51 | < 5.00 | Cc1ccc(-c2nn(C(C)(C)CNC(=O)c3ncccc3C)c3ncnc(N)c23)cc1 [Example 71] |  |  | 
6.05 | 6.00 to 7.00 | Cc1ccc(-c2nn(C(C)(C)CNC(=O)c3cc(C)ccn3)c3ncnc(N)c23)cc1 [Example 65] | 6.02 | 5.78 | 
